Measured values: PubChem BioAssay (NCI)
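How tested: cells in 96-well plates exposed to compound for 48 hours at five concentrations. TGI marks complete inhibition of growth.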

Assays:
Assay in all cases: NCI-60 cell line screen, 48 h
COLO 205 colon = system: COLO 205 colon
DU-145 prostate = system: DU-145 prostate
EKVX NSCLC = system: EKVX NSCLC
HL-60(TB) leukemia = system: HL-60(TB) leukemia
HS 578T breast = system: HS 578T breast
KM12 colon = system: KM12 colon
MDA-MB-231 breast = system: MDA-MB-231 breast
MDA-MB-435 = system: MDA-MB-435
MDA-N = system: MDA-N
NCI-H226 lung = system: NCI-H226 lung
NCI/ADR-RES ovarian = system: NCI/ADR-RES ovarian
SR leukemia = system: SR leukemia

Structure (SMILES) | TGI (COLO 205 colon) | TGI (DU-145 prostate) | TGI (EKVX NSCLC) | TGI (HL-60(TB) leukemia) | TGI (HS 578T breast) | TGI (KM12 colon) | TGI (MDA-MB-231 breast) | TGI (MDA-MB-435) | TGI (MDA-N) | TGI (NCI-H226 lung) | TGI (NCI/ADR-RES ovarian) | TGI (SR leukemia)
COC12C=CC(C=C1C#N)CC2 (stereo unspecified) (tested in a mixture with another compound) | > 100 µM | > 100 µM | > 100 µM | > 100 µM | > 100 µM | > 100 µM | > 100 µM | > 100 µM | > 100 µM | > 100 µM | > 100 µM | > 100 µM
CN(C)CCNC(=O)c1ccc(Cl)c2cc3ccccc3nc12 | 1.64 µM | 6.2 µM | 4.78 µM | 3.98 µM | 3.07 µM | 11.4 µM | 3 µM | 2.22 µM | 2.21 µM | 4.7 µM | 5.65 µM | 3.03 µM
O=C(O)CNC(=O)c1ccc2cc(C(=O)N3CC(CCl)c4ccc([N+](=O)[O-])cc43)[nH]c2c1 (stereo unspecified) | > 100 µM | > 100 µM | > 100 µM | > 100 µM | > 100 µM | > 100 µM | > 100 µM | > 100 µM | > 100 µM | > 100 µM | > 100 µM | > 100 µM
O=C1CS(=O)(=O)C(c2cccc(Oc3ccccc3)c2)N1c1ccccc1 (stereo unspecified) | 37.2 µM | > 100 µM | 54.2 µM | > 100 µM | 69.9 µM | > 100 µM | 62.6 µM | 68.2 µM | 44.2 µM | 45.6 µM | 83 µM | 57 µM
Cc1ccc(S(=O)(=O)n2ccc(-c3ccc4ccn(S(=O)(=O)c5ccc(C)cc5)c4c3)c2)cc1 | > 100 µM | > 100 µM | > 100 µM | > 100 µM | > 100 µM | > 100 µM | > 100 µM | > 100 µM | > 100 µM | > 100 µM | > 100 µM | > 100 µM
COC(=O)C1=CON2C3CC4CC(C3)CC(C4)C12C (stereo unspecified) | > 100 µM | > 100 µM | > 100 µM | > 100 µM | > 100 µM | > 100 µM | > 100 µM | > 100 µM | > 100 µM | > 100 µM | > 100 µM | > 100 µM
CNC(=S)NNc1ncnc2c1ncn2-c1ccc(C)cc1 | > 100 µM | > 100 µM | > 100 µM | > 100 µM | > 100 µM | > 100 µM | > 100 µM | > 100 µM | > 100 µM | > 100 µM | > 100 µM | > 100 µM
COc1ccc([C@]23CCN4COC[C@@H]([C@H]42)C2(CC3)OCC(C)(C)CO2)cc1OC | > 100 µM | > 100 µM | > 100 µM | > 100 µM | > 100 µM | > 100 µM | > 100 µM | > 100 µM | > 100 µM | > 100 µM | > 100 µM | > 100 µM
